Assay results: the NIST ThermoML archive (doi:10.1021/acs.jced.7b00265)

Experiment: molar heat capacity at constant pressure; mn = molality of the nth substance listed, in mol/kg
Details: 100 kPa, Liquid, DSC

O=S(=O)([O-])[O-].[K+].[K+] [potassium sulfate] + O
molar heat capacity at constant pressure [J/K/mol]
Details	253.15 K	258.15 K	263.15 K	268.15 K	273.15 K	278.15 K	283.15 K	288.15 K	293.15 K	298.15 K
m1 = 0.1142	–	–	75.36	75.07	74.96	74.83	74.81	74.85	74.83	74.77
m1 = 0.201	–	–	74.67	74.5	74.48	74.33	74.39	74.45	74.46	74.43
m1 = 0.296	–	–	73.96	73.87	73.91	73.89	73.98	74.02	74.15	74.11
m1 = 0.415	73.75	73.5	73.32	73.32	73.42	73.4	73.55	73.65	73.77	73.77
m1 = 0.515	–	73.06	72.94	72.98	73.12	73.16	73.33	73.41	73.53	73.53
m1 = 0.606	–	–	72.64	72.74	72.9	72.92	73.14	73.21	73.33	73.33

O=S(=O)([O-])[O-].[Na+].[Na+] [sodium sulfate] + O
molar heat capacity at constant pressure [J/K/mol]
Details	253.15 K	258.15 K	263.15 K	268.15 K	273.15 K	278.15 K	283.15 K	288.15 K	293.15 K	298.15 K
m1 = 0.1012	–	76.36	75.81	75.43	75.23	75.08	74.99	74.95	74.93	74.97
m1 = 0.253	–	75.13	74.91	74.72	74.63	74.57	74.55	74.57	74.57	74.63
m1 = 0.501	–	74.17	74.13	74.09	74.11	74.15	74.2	74.28	74.32	74.4
m1 = 0.748	73.94	73.9	73.96	74.02	74.08	74.13	74.23	74.33	74.39	74.47
m1 = 1	73.97	74.01	74.15	74.21	74.31	74.39	74.49	74.62	74.68	74.76
m1 = 1.33	74.4	74.53	74.72	74.84	74.95	75.03	75.11	75.22	75.28	75.37
m1 = 1.517	–	74.71	74.81	75.03	75.22	75.33	75.52	75.65	75.77	75.8
m1 = 2.084	–	–	–	–	–	–	77.16	77.32	77.39	77.32
